Test results as given in patent US4200650A, “2-Amino-cyclopent-1-ene-1-thiocarboxylic acid-disulfides to treat noradrenergic malfunctions” (Richter Gedeon Vegyeszeti Gyar Rt., priority 1976, dated 1980).

How the values were obtained:
[1] = system: dopamine-β-hydroxylase; experiment: Determination of the noradrenaline content of spleen; type: in vivo, male Wistar rats
Procedure: (§1) The dopamine-β-hydroxylase inhibiting effects of the new compounds according to the invention were examined by the following tests:
(§2) The tests were performed on male Wistar rats weighing 150 to 200 g. The dopamine-β-hydroxylase inhibiting effects of the compounds were evaluated by determining the change of noradrenaline, dopamine and adrenaline levels of the cerebrum, heart, spleen and adrenal gland. The serotonine and 5-hydroxy-indolylacetic acid levels of the cerebrum were also determined. The measurements were performed as follows:
(§3) The animals were decapitated, the cerebrum, heart, spleen and adrenal gland were removed quickly, and the organs were frozen by placing them onto a metal sheet cooled with dry ice. The frozen organs were stored for maximum one night at -20° C.
(§4) Determination of the noradrenaline content of heart and spleen
(§5) The organs were weighed in frozen state and then homogenized in 5.0 ml of 0.4 n perchloric acid containing 0.05% of EDTA-Naa and 0.1% of Na2 S2 O5. The homogenized mixtures were centrifuged as described above for the treatment of adrenal gland, the supernatants were decanted, and the pH was adjusted to 8.0±0.1 with a 0.1 molar tris buffer containing 20 g/l of NaOH and 25 g/l of EDTA-Na2. 100 mg of prepared Al2 O3 (Anton et al.: J. Pharm. Ther. 138, 360/1962/) were added to the samples, and the mixtures were shaken mechanically for 20 minutes. Thereafter Al2 O3 was washed with 2×10 ml of distilled water, and noradrenaline was eluted with 1.0 ml of 0.05 n perchloric acid. 0.5 ml samples of the eluate were applied for the determination of noradrenaline. Noradrenaline was determined according to the method of Shellenberger et al. (Anal. Biochem. 39, 356/1971/), with the following modifications of the basic procedure: 0.5 ml of 0.1 molar Na-K-phosphate buffer, containing 9 g/l of EDTA-Na2, were added to 0.5 ml of the eluate, and the catecholamines (noradrenaline in the examination of heart and spleen and noradrenaline and dopamine in the examination of the cerebrum) were oxidized with 0.1 ml of a 0.1 n iodine solution in 5% potassium iodide. After exactly 2 minutes oxidation was stopped by adding 0.25 ml of a 2.5% sodium sulfite solution in 4.4 n aqueous sodium hydroxide to the mixture. 2 minutes after the introduction of the alkaline sulfite solution 0.2 ml of concentrated acetic acid were added to the samples, upon which the pH decreased to 4.4 to 4.5 Thereafter the samples were placed for 5 minutes into a drying oven heated to 100° C., and then the samples were cooled with ice water. The fluorescency of noradrenaline was measured with an OPTON spectrophotometer at wavelengths of 380 nm (excitation) and 490 nm (emission).
(§6) In the tests disulfiram, 2,2-dipyridyl, bis(1-methyl-4-homopiperazinyl-thriocaronyl)-disulfide, sodium diethyldithiocarbamate and N-phenyl-N'-(2-thiazolyl)-thiourea were applied as reference substances. The values indicated in Table 1 are the percentages in relation to the amine levels of the controls measured in the same tests (± standard error). The statistical calculations were performed on a TPA/i type computer, using Student's t test.

[2] = system: dopamine-β-hydroxylase; experiment: Determination of the adrenaline content of adrenal gland; type: in vivo, male Wistar rats; conditions: ± standard error
Procedure: as §1, §2, §3
Determination of the adrenaline content of adrenal gland
The adrenal glands were freed from fat and homogenized in 3.0 ml of ice-cold 0.4 n perchloric acid. The homogenized mixtures were centrifuged for 10 minutes at 0° C. with a speed of 3200 r.p.m. using a Janetzky K-70 type centrifuge. 0.05 ml samples were taken from the supernatant, and the adrenaline level was determined directly by the method of Laverty et al. (Anal. Biochem. 22, 269/1968/).
as §6

[3] = system: dopamine-β-hydroxylase; experiment: Determination of the noradrenaline content of heart; type: in vivo, male Wistar rats; conditions: ± standard error
Procedure: as §1, §2, §3, §4, §5, §6

[4] = system: dopamine-β-hydroxylase; experiment: Determination of noradrenaline and dopamine levels of brain (dopamine-β-hydroxylase inhibiting effect); type: in vivo, male Wistar rats; conditions: ± standard error
Procedure: as §1, §2, §3
Determination of the noradrenaline, dopamine, serotonine and 5-hydroxy-indolylacetic acid contents of brain
The brains were homogenized in 10 parts by volume of 0.4 n perchloric acid. The homogenized mixture was stored at -20° C. overnight, thereafter it was thawed and centrifuged as described above. A sample of the homogenized mixture corresponding to 0.5 g of brain was removed, the pH of the sample was adjusted to 8.0±0.1 with 0.1 molar tris-buffer of the above composition, and the sample was processed as described above for the determination of the noradrenaline content of heart and spleen, with the difference that 1.5 ml of 0.05 n perchloric acid were applied as eluting agent. 0.5 ml of the eluate were applied to determine the noradrenaline and dopamine contents. The measurement was performed as described above, with the difference that samples of 0.5 ml were applied for the recording of the fluorescency of noradrenaline. The residua was placed for 50 minutes into a drying oven heated to 100° C., thereafter the sample was cooled with ice water, and the fluorescency of dopamine was recorded at wavelengths of 325 nm (excitation) and 380 nm (emission).
In a further test series the serotonine and 5-hydroxy-indolylacetic acid contents were also determined, beside the determination of the noradrenaline and dopamine content, from the same sample. In this instance the brains were homogenized in 10 ml of 75% ethanol, 0.2 ml of EDTA-Na2 and 5% of ascorbic acid were added to the homogenized mixtures, and the homogenized mixtures were maintained at -20° C. overnight. The mixtures were centrifuged as described above, and 5.0 ml samples of the supernatant were removed. The samples were diluted with equal volumes of distilled water, and poured onto ion exchange columns of 0.5×1.5 cm dimensions, filled with buffered Amberlite CG-30 (200 to 400 mesh). The columns were washed with 5 ml of distilled water followed by 1.0 ml of 0.2 n hydrochloric acid, and the first effluent and the aqueous wash were collected for the determination of 5-hydroxy-indolylacetic acid. Elution was continued with further 1.2 ml of 0.2 n hydrochloric acid in order to remove noradrenaline, dopamine and serotonine. Samples of 0.3 ml were used for the determinations.
Noradrenaline and dopamine were determined by the method of Shellenberger, modified as described above, whereas serotonine was determined by the method of Curzon et al. (Brit. J. Pharmacol. 39, 653/1970/). The basic method was modified as follows: A 0.5% solution of ortho-phthal(di)aldehyde in absolute ethanol was diluted with 10 n hydrochloric acid to 50-fold of its original volume, and 0.6 ml of the resulting 0.01% ortho-phthal(di)aldehyde solution were added immediately to 0.5 ml of the serotonine-containing sample. The sample was placed into a hot water bath for 10 minutes, thereafter cooled with tap water, and the fluorescency was recorded at wavelengths of 360 nm (excitation) and 490 nm (emission).
In the tests disulfiram, 2,2-dipyridyl, bis(1-methyl-4-homopiperazinyl-thriocaronyl)-disulfide, sodium diethyldithiocarbamate and N-phenyl-N'-(2-thiazolyl)-thiourea were applied as reference substances. […]

[5] = system: dopamine-β-hydroxylase; conditions: literature, cited from earlier work
[6] = i.p., 200 mg/kg, 4 hours, ± standard error
[7] = i.p., 200 mg/kg, 8 hours, ± standard error

CCNC1=C(C(=S)SSC(=S)C2=C(NCC)CCC2)CCC1 [Compound M-6, 2-(N-ethyl)-amino-cyclopent-1-ene-thiocarboxylic acid-disulfide]
Spleen NA (noradrenaline) level, percentages in relation to the controls ([1]; i.p., 100 mg/kg, 4 hours, ± standard error): 64.1±7.6% | Spleen NA (noradrenaline) level, percentages in relation to the controls [1, 6]: 85.0±10.8% | Spleen NA (noradrenaline) level, percentages in relation to the controls [1, 7]: 86.5±23.5% | Spleen NA (noradrenaline) level, percentages in relation to the controls ([1]; p.o., 500 mg/kg, 4 hours, ± standard error): 125.4±12.4% | Spleen NA (noradrenaline) level, percentages in relation to the controls ([1]; p.o., 500 mg/kg, 8 hours, ± standard error): 64.6±12.4% | Adrenal gland AD (adrenaline) level, percentages in relation to the controls ([2]; i.p., 100 mg/kg, 4 hours): 123.4±4.6% | Adrenal gland AD (adrenaline) level, percentages in relation to the controls ([2]; i.p., 200 mg/kg, 4 hours): 97.3±4.1% | Adrenal gland AD (adrenaline) level, percentages in relation to the controls ([2]; i.p., 200 mg/kg, 8 hours): 79.0±3.9% | Adrenal gland AD (adrenaline) level, percentages in relation to the controls ([2]; p.o., 500 mg/kg, 4 hours): 121.4±13.7% | Adrenal gland AD (adrenaline) level, percentages in relation to the controls ([2]; p.o., 500 mg/kg, 8 hours): 107.5±8.9% | Heart NA (noradrenaline) level, percentages in relation to the controls ([3]; i.p., 100 mg/kg, 4 hours): 92.9±3.3% | Heart NA (noradrenaline) level, percentages in relation to the controls ([3]; i.p., 200 mg/kg, 4 hours): 97.8±8.8% | Heart NA (noradrenaline) level, percentages in relation to the controls ([3]; i.p., 200 mg/kg, 8 hours): 81.3±5.7% | Heart NA (noradrenaline) level, percentages in relation to the controls ([3]; p.o., 500 mg/kg, 4 hours): 82.4±8.2% | Heart NA (noradrenaline) level, percentages in relation to the controls ([3]; p.o., 500 mg/kg, 8 hours): 97.5±5.6% | Brain DA (dopamine) level, percentages in relation to the controls ([4]; i.p., 100 mg/kg, 4 hours): 99.0±5.22% | Brain NA (noradrenaline) level, percentages in relation to the controls ([4]; i.p., 100 mg/kg, 4 hours): 41.8±2.3% | Brain DA (dopamine) level, percentages in relation to the controls ([4]; i.p., 200 mg/kg, 4 hours): 134.9±5.4% | Brain NA (noradrenaline) level, percentages in relation to the controls ([4]; i.p., 200 mg/kg, 4 hours): 34.4±2.6% | Brain DA (dopamine) level, percentages in relation to the controls ([4]; i.p., 200 mg/kg, 8 hours): 121.7±6.1% | Brain NA (noradrenaline) level, percentages in relation to the controls ([4]; i.p., 200 mg/kg, 8 hours): 34.2±3.5% | Brain DA (dopamine) level, percentages in relation to the controls ([4]; p.o., 500 mg/kg, 4 hours): 106.7±3.4% | Brain NA (noradrenaline) level, percentages in relation to the controls ([4]; p.o., 500 mg/kg, 4 hours): 83.9±4.8% | Brain DA (dopamine) level, percentages in relation to the controls ([4]; p.o., 500 mg/kg, 8 hours): 92.6±4.0% | Brain NA (noradrenaline) level, percentages in relation to the controls ([4]; p.o., 500 mg/kg, 8 hours): 73.7±4.7%

C=CCNC1=C(C(=S)SSC(=S)C2=C(NCC=C)CCC2)CCC1 [Compound M-7, 2-(N-allyl)-amino-cyclopent-1-ene-thiocarboxylic acid-disulfide]
Spleen NA (noradrenaline) level, percentages in relation to the controls [1, 6]: 66.1±18.1% | Spleen NA (noradrenaline) level, percentages in relation to the controls [1, 7]: 88.5±33.9% | Adrenal gland AD (adrenaline) level, percentages in relation to the controls ([2]; i.p., 200 mg/kg, 4 hours): 93.3±8.0% | Adrenal gland AD (adrenaline) level, percentages in relation to the controls ([2]; i.p., 200 mg/kg, 8 hours): 69.8±6.8% | Heart NA (noradrenaline) level, percentages in relation to the controls ([3]; i.p., 200 mg/kg, 4 hours): 100.0±3.9% | Heart NA (noradrenaline) level, percentages in relation to the controls ([3]; i.p., 200 mg/kg, 8 hours): 91.8±3.7% | Brain DA (dopamine) level, percentages in relation to the controls ([4]; i.p., 200 mg/kg, 4 hours): 123.6±8.1% | Brain NA (noradrenaline) level, percentages in relation to the controls ([4]; i.p., 200 mg/kg, 4 hours): 50.5±5.2% | Brain DA (dopamine) level, percentages in relation to the controls ([4]; i.p., 200 mg/kg, 8 hours): 104.7±5.7% | Brain NA (noradrenaline) level, percentages in relation to the controls ([4]; i.p., 200 mg/kg, 8 hours): 64.5±4.4%

CN1CCCN(C(=S)SSC(=S)N2CCCN(C)CC2)CC1 [FLA-63, bis(1-methyl-4-homopiperazinyl)-thiocarbonyl-disulfide, reference compound]
Spleen NA (noradrenaline) level, percentages in relation to the controls ([1]; i.p., 50 mg/kg, 4 hours): 58% | Adrenal gland AD (adrenaline) level, percentages in relation to the controls ([2]; i.p., 50 mg/kg, 4 hours): 43% | Heart NA (noradrenaline) level, percentages in relation to the controls ([3]; i.p., 50 mg/kg, 4 hours): 96% | dopamine-β-hydroxylase inhibition under in vivo conditions, in words ([5]; in vivo): one of the most potent dopamine-β-hydroxylase inhibitors under in vivo conditions | Brain DA (dopamine) level, percentages in relation to the controls ([4]; i.p., 50 mg/kg, 4 hours): 118% | Brain NA (noradrenaline) level, percentages in relation to the controls ([4]; i.p., 50 mg/kg, 4 hours): 24.6%

CCCCc1ccc(C(=O)O)nc1 [Fusaric acid, 5-butyl-picolinic acid]
dopamine-β-hydroxylase inhibiting effects, in words [5]: strong dopamine-β-hydroxylase inhibiting effects

NNc1nncc2ccccc12 [Hydralazine]
dopamine-β-hydroxylase inhibiting effects, in words [5]: possess dopamine-β-hydroxylase inhibiting effects

O=C(CO)c1coc(=O)c2c(O)cccc12 [Oosponol]
dopamine-β-hydroxylase inhibiting effects, in words [5]: strong dopamine-β-hydroxylase inhibiting effects

CC(N)Cc1ccccc1 (stereo not drawn) [amphetamine]
dopamine-β-hydroxylase inhibiting effects, in words [5]: possess dopamine-β-hydroxylase inhibiting effects

NNCc1ccccc1 [benzylhydrazine]
dopamine-β-hydroxylase inhibiting effects, in words [5]: exert dopamine-β-hydroxylase inhibiting effects | duration of activity, in words [5]: exert their activities for a short period

NOCc1ccccc1 [benzyloxyamine]
dopamine-β-hydroxylase inhibiting effects, in words [5]: exert dopamine-β-hydroxylase inhibiting effects | duration of activity, in words [5]: exert their activities for a short period

CCN(CC)C(=S)S [diethyl dithiocarbamate]
dopamine-β-hydroxylase inhibiting effects, in words [5]: strong dopamine-β-hydroxylase inhibiting effects

Cn1cc[nH]c1=S [methimazol]
dopamine-β-hydroxylase inhibiting effects, in words [5]: possess dopamine-β-hydroxylase inhibiting effects
